Experimental data from paper PMC4941645, “Oxidative Stress Induced by Pt(IV) Pro-drugs Based on the Cisplatin Scaffold and Indole Carboxylic Acids in Axial Position” (Scientific Reports, 2016).

What was measured:
[1] = test system: nuclear DNA of A375 cells; experiment: Nuclear DNA platination (GF-AAS); type: cell-based, human; conditions: A375, 5 μM, 24 h
Procedure: It is well known that the main cellular target of platinum complexes is the DNA, and platination of nuclear DNA is a critical step in triggering the death of cancer cells by platinum-based drugs. On this basis, the amount of platinum bound to nuclear DNA was also assessed in A375 cells treated with the tested Pt(IV) complexes. Cells were treated for 24 h with 5 μM of the tested complexes, the nuclear DNA was isolated and the amount of Pt in each sample was determined by means of GF-AAS analysis. The results expressed as pg Pt/ng DNA are depicted in Fig. 7. […] In particular, 1P led to a roughly 60-fold higher DNA platination level with respect to cisplatin.
A375 cells (3 × 10^6) were seeded in 10 cm Petri dishes in 10 mL of culture medium. Subsequently, cells were treated with the tested complexes (5 μM) for 24 h. The DNA was extracted and purified by a commercial spin column quantification kit (Qiagen DNeasy Blood and Tissue Kit). Only highly purified samples (A260/A230 ≅ 1.8 and […]) were included for analysis to avoid any artifacts. The samples were completely dried and re-dissolved in 200 μL of Milli-Q water (18.2 MΩ) for at least 20 min at 65 °C in a shaking thermo-mixer, mineralized and analyzed for total Pt content by GF-AAS as described above.

A375 melanoma cells [2] = experiment: MTT cytotoxicity test, A375; type: cell-based, human; conditions: ± S.D.
Procedure: (§1) The cytotoxic activity of the complexes and of the uncoordinated ligands was evaluated by the MTT test on a panel of human tumor cell lines containing examples of pancreatic (BxPC3), colorectal (HCT-15), breast (MCF-7), cervical (A431), and lung (A549) cancers as well as of melanoma (A375). For comparison purposes, the cytotoxicity of cisplatin was evaluated under the same experimental conditions.
(§2) Cisplatin was dissolved in 0.9% NaCl solution.
(§3) Human breast (MCF-7), colon (HCT-15), lung (A549) and pancreatic (BxPC3) carcinoma cell lines together with melanoma (A375) cells were obtained from American Type Culture Collection (ATCC, Rockville, MD). The human ovarian cancer cell line 2008 and its cisplatin resistant variant, C13*, were kindly provided by Prof. G. Marverti (Department of Biomedical Science of Modena University, Italy). Human cervical carcinoma (A431) cells were kindly provided by Prof. F. Zunino (Division of Experimental Oncology B, Istituto Nazionale dei Tumori, Milan, Italy). Cell lines were maintained in the logarithmic phase at 37 °C in a 5% carbon dioxide atmosphere using the following culture media containing 10% fetal calf serum (Euroclone, Milan, Italy), antibiotics (50 units/mL penicillin and 50 μg/mL streptomycin) and 2 mM L-glutamine: (i) RPMI-1640 medium (Euroclone) for 2008, C13*, MCF-7, HCT-15, A431 and BxPC3 cells, (ii) F-12 HAM’S (Sigma Chemical Co.) for A549 cells, iii) DMEM (Sigma Chemical Co.) for A375 cells.
(§4) The growth inhibitory effect toward tumor cells was evaluated by means of the MTT assay. Briefly, (3–8) × 10^3 cells/well, dependent upon the growth characteristics of the cell line, were seeded in 96-well microplates in growth medium (100 μL). After 24 h, the medium was removed and replaced with fresh medium containing the compound to be studied at the appropriate concentration. Triplicate cultures were established for each treatment. After 24, 48, or 72 h, each well was treated with 10 μL of a 5 mg/mL MTT saline solution and, after 5 h of incubation, 100 μL of a sodium dodecylsulfate (SDS) solution in 0.01 M HCl was added. After an overnight incubation, cell growth inhibition was detected by measuring the absorbance of each well at 570 nm using a Bio-Rad 680 microplate reader. The mean absorbance for each drug dose was expressed as a percentage of the control, untreated well absorbance and plotted vs drug concentration. The IC50 values, the drug concentrations that decrease the mean absorbance at 570 nm to 50% of that of untreated control wells, were calculated from the dose–response curves with the four-parameter logistic model (4PL). The final value is the mean ± S.D. of at least three independent experiments performed in triplicate.

[3] = test system: 2008 ovarian cancer cells; experiment: MTT cytotoxicity test, cisplatin-sensitive 2008; type: cell-based, human; conditions: 2008 cisplatin-sensitive, 72 h, ± S.D.
Procedure: The cytotoxic properties of the complexes were also evaluated in a pair of tumor cell lines suitably selected for their sensitivity and resistance to cisplatin (adenocarcinoma cells 2008/C13^*). Cross-resistance profiles were evaluated by means of the resistance factor (RF), defined as the ratio between IC50 values calculated for the resistant cells and those obtained with the sensitive ones (Table 2). The phenomenon of cisplatin resistance is multifactorial in nature. Nevertheless, the main molecular mechanisms involved in drug resistance in C13* cancer cells have largely been identified. Indeed, in this cell line resistance is correlated to high cellular glutathione and thioredoxin reductase levels, reduced cellular drug uptake and enhanced repair of DNA damage. […] The RF values calculated for all derivatives were six- to nine-fold lower than that of cisplatin, clearly indicating the absence of cross-resistance.
as §2
Triplicate cultures were established for each treatment.

[4] = test system: HCT-15 colon carcinoma cells; experiment: MTT cytotoxicity test, HCT-15; type: cell-based, human; conditions: HCT-15, 72 h, MTT, ± S.D.
Procedure: as §1, §2, §3, §4

[5] = test system: A549 lung carcinoma cells; experiment: cells; conditions: A549, 72 h
Procedure: as §1, §2, §3, §4

[6] = test system: MCF-7 breast carcinoma cells; experiment: MTT cytotoxicity test, MCF-7; type: cell-based, human; conditions: ± S.D.
Procedure: as §1, §2, §3, §4

[7] = test system: BxPC3 pancreatic carcinoma cells; experiment: MTT cytotoxicity test, BxPC3; type: cell-based, human; conditions: BxPC3, 72 h, MTT, ± S.D.
Procedure: as §1, §2, §3, §4

[8] = Log P octanol/water, shake flask method with ICP-MS; type: physicochemical; conditions: n-octanol / 0.9% NaCl water, Pt by ICP-MS
Procedure: Partition coefficients (logP values) for octanol/water partition were determined in order to examine whether a correlation exists between lipophilicity and accumulation into cells. The log P values obtained (Table 3) give the trend in lipophilicity as mono indole acid complex < succinate complex < acetate complex < bis indole acid complex < benzoate complex for both the IAA and the IPA series.
The logP values of the Pt(IV) compounds were determined using the shake flask method. The respective Pt(IV) complex was dissolved in 0.9% NaCl (w/v) ultrapure water (presaturated with n-octanol). The solutions were sonicated and filtered to remove undissolved Pt(IV) compounds. The initial Pt concentrations were determined by ICP-MS. Subsequently, the Pt(IV) solutions were added to an equal volume of n-octanol (presaturated with 0.9% NaCl (w/v) ultrapure water). The heterogeneous mixtures were shaken vigorously for 30 min before centrifuging at 4000 rpm for 30 min to achieve phase separation. The final Pt concentration in the aqueous phase was determined again by ICP-MS. The logarithm of the ratio of Pt concentrations in the organic and aqueous phases was calculated to determine the logP values. All experiments were done in duplicate.

[9] = test system: panel of human tumor cell lines (BxPC3, HCT-15, MCF-7, A431, A549, A375); experiment: MTT cytotoxicity, mean over panel of human tumor cell lines; type: cell-based; conditions: for IC50: mean over the six cell lines of Table 1, 72 h; for cytotoxic effect (in words): free ligands
Procedure: as §1, §4

A375 melanoma cells [10] = experiment: Cellular accumulation of Pt (GF-AAS); type: cell-based, human
[11] = test system: C13* cisplatin-resistant ovarian cancer cells; experiment: MTT cytotoxicity test, cisplatin-resistant C13*; type: cell-based, human; conditions: for IC50: C13* cisplatin-resistant, 72 h, MTT, ± S.D.; for RF (resistance factor): IC50 resistant (C13*) / parent line (2008)
Procedure: The cytotoxic properties of the complexes were also evaluated in a pair of tumor cell lines suitably selected for their sensitivity and resistance to cisplatin (adenocarcinoma cells 2008/C13^*). Cross-resistance profiles were evaluated by means of the resistance factor (RF), defined as the ratio between IC50 values calculated for the resistant cells and those obtained with the sensitive ones (Table 2). The phenomenon of cisplatin resistance is multifactorial in nature.
as §2, §3, §4

[12] = test system: A431 cervical carcinoma cells; experiment: MTT cytotoxicity test, A431; type: cell-based, human; conditions: ± S.D.
Procedure: as §1, §2, §3, §4

A375 cells = experiment: ROS production (CM-H2DCFDA probe); type: cell-based, human; conditions: A375, 12.5 μM, compared with antimycin positive control
Procedure: ROS are products of normal cell metabolism but their levels can be increased upon exposure to toxic agents or interference with the cellular redox network. […] Consequently, cellular ROS levels upon treatment with equal doses (12.5 μM) of the different platinum complexes were monitored in A375 cancer cells by using the peroxide-sensitive fluorescent probe CM-H2DCFDA (5-(and-6)-chloromethyl-2′,7′-dichlorodihydrofluorescein diacetate, acetyl ester). Antimycin, a classical inhibitor of the mitochondrial respiratory chain at the level of complex III, was used as a positive control.
Figure 8 ROS production in A375 cells. Cells were preincubated in PBS/10 mM glucose medium for 20 min at 37 °C in the presence of 10 μM CM-DCFDA and then treated with equimolar doses (12.5 μM) of indole propionic acid Pt(IV) derivatives (panel A) or indole acetic acid Pt(IV) derivatives (panel B). The fluorescence of DCF was measured.
The production of ROS was measured in A375 cells (10^4 per well) grown for 24 h in 96-well plates in DMEM medium without phenol red (Sigma Chemical Co.). Cells were then washed with PBS and loaded with 10 μM 5-(and-6)-chloromethyl-2′,7′-dichlorodihydrofluorescein diacetate, acetyl ester (CM–H2DCFDA) (Molecular Probes-Invitrogen) for 25 min in the dark. Afterwards, cells were washed with PBS and incubated with increasing concentrations of the tested complexes. The fluorescence increase was estimated with a plate reader (Fluoroskan Ascent FL, Labsystem, Finland) at 485 (excitation) and 527 nm (emission). Antimycin (3 μM, Sigma Chemical Co.), a potent inhibitor of Complex III in the electron transport chain, was used as positive control.

[13] = Homo sapiens, A-375, A375, 72 h
[14] = Homo sapiens, MCF7, MCF-7, 72 h
[15] = Homo sapiens, A-431, A431, 72 h

Structure (SMILES)	IC50 (A375 melanoma cells [2]; A375, 72 h)	IC50 [3]	IC50 [4]	IC50 ([5]; MTT, ± S.D.)	IC50 ([6]; MCF-7, 72 h)	IC50 [7]	Log P (octanol/water) [8]	IC50 [9]	IC50 [11]	IC50 ([12]; A431, 72 h)	RF (resistance factor) [11]	ROS production (in words) (A375 cells)	other results
[NH2][Pt]([NH2])([Cl])([Cl])([O]C(=O)CCC(=O)O)[O]C(=O)CCc1c[nH]c2ccccc12 [Complex 4P]	8.66 ± 4.03 µM	> 50 µM	42 ± 1.92 µM	11.8 ± 1.06 µM	40.56 ± 0.08 µM	> 50 µM	−0.100 ± 0.05	30.4 µM	> 50 µM	29.2 ± 4.19 µM	–	–	DNA platination (in words) [1]: least effective; cellular platinum accumulation (in words) (A375 melanoma cells [10]; A375, 1.5 and 3 μM, 6 and 24 h): lowest platinum accumulation; cellular uptake level, times lower than cisplatin (A375 melanoma cells [10]; A375, GF-AAS): about 7
CC(=O)[O][Pt]([NH2])([NH2])([Cl])([Cl])[O]C(=O)CCc1c[nH]c2ccccc12 [Complex 5P]	3.15 ± 0.02 µM	18 ± 1.33 µM	14.03 ± 0.14 µM	3.62 ± 0.18 µM	21.01 ± 0.06 µM	19.5 ± 0.68 µM	−0.080 ± 0.04	11.1 µM	21.9 ± 2.48 µM	5.35 ± 2.11 µM	1.2	–	DNA platination (in words) [1]: least effective
N.N.[Cl][Pt][Cl] [cisplatin]	2.06 ± 1.01 µM	2.26 ± 1.06 µM	15.5 ± 2.48 µM	12.6 ± 0.81 µM	7.6 ± 2.96 µM	10.2 ± 1.65 µM	–	8.33 µM	–	1.96 ± 0.84 µM	10.5	–	–
O=C(O)Cc1c[nH]c2ccccc12 [IAA, indole-3-acetic acid, reference compound]	–	–	–	–	–	–	–	–	–	–	–	no effect on cellular basal ROS levels	IC50 (A375 melanoma cells [2]; [13]): > 50 µM; IC50 ([4]; Homo sapiens): > 50 µM; IC50 ([5]; Homo sapiens): > 50 µM; IC50 [6, 14]: > 50 µM; IC50 ([7]; Homo sapiens, BXPC-3): > 50 µM; cytotoxic effect (in words) [9]: did not elicit any significant cytotoxic effect; IC50 [12, 15]: > 50 µM
N.N.O=C(CCc1c[nH]c2ccccc12)[O][Pt]([Cl])([Cl])[O]C(=O)CCc1c[nH]c2ccccc12 [Complex 2P]	1.35 ± 0.75 µM	8.37 ± 2.12 µM	14 ± 1.56 µM	2.87 ± 1.59 µM	5.54 ± 0.67 µM	2.56 ± 0.65 µM	−0.051 ± 0.06	4.9 µM	2.91 ± 0.64 µM	3 ± 0.35 µM	0.4	–	–
N.N.O=C(Cc1c[nH]c2ccccc12)[O][Pt]([Cl])([Cl])[O]C(=O)Cc1c[nH]c2ccccc12 [Complex 2A]	1.85 ± 0.23 µM	11 ± 2.14 µM	25.2 ± 0.89 µM	3.75 ± 1.31 µM	3.7 ± 0.29 µM	3.32 ± 0.21 µM	−0.068 ± 0.07	–	3.44 ± 0.59 µM	13.3 ± 0.84 µM	0.3	less effective compared to the positive control	–
O=C(O)CCc1c[nH]c2ccccc12 [IPA, indole-3-propionic acid, reference compound]	–	–	–	–	–	–	–	–	–	–	–	no effect on cellular basal ROS levels	IC50 (A375 melanoma cells [2]; [13]): > 50 µM; IC50 ([4]; Homo sapiens): > 50 µM; IC50 ([5]; Homo sapiens): > 50 µM; IC50 [6, 14]: > 50 µM; IC50 ([7]; Homo sapiens, BXPC-3): > 50 µM; cytotoxic effect (in words) [9]: did not elicit any significant cytotoxic effect; IC50 [12, 15]: > 50 µM
